Source: patent publication US9238131B2, “Ocular iontophoresis device” (priority 2005, dated 2016)

Conditions: rabbit, 40 mg/ml in water with no buffer, 2 mA-4 min
Text: The assignee made some comparative tests on rabbits done with a first iontophoresis device having cylindrical outer and inner walls (as known in the prior art) and a second iontophoresis device as shown in FIG. 7 (i.e. the inner wall 26 and outer wall 24 being tapered with the same inclination angle).
The two devices were designed for having the same: • application surface 2; • distance between the active electrode 10 and the application surface 2.
The area of the active electrode 30 of the second device was about three times more important than those of the first device.
For each comparative test, iontophoresis conditions were the same (2 mA-4 min).
After iontophoresis, rabbit ocular tissues were sampled. Tissues sampled included choroids and retina.
Concentrations of active substances 30 in these ocular tissues were then measured.

## C[C@@H]1C[C@H]2[C@@H]3CCC4=CC(=O)C=C[C@]4(C)[C@@]3(F)[C@@H](O)C[C@]2(C)[C@@]1(O)C(=O)COP(=O)([O-])[O-].[Na+].[Na+] [Dexamethasone Disodium Phosphate]
  Increase of tissue concentration, second device versus first device, choroids: 3.7
Choroids and retina
  Times more active substance in the tissues with second (tapered) device than with first (cylindrical) device: At least three
